The values below come from a melting point compilation (Tetko et al.; mined from patent text by program, amines drawn as free bases though some values may be those of a salt).

Each structure is given as a SMILES string.

What is called melting point is the temperature, or range, at which the solid turns liquid.

For `Oc1ccc(OCCN2CCC(CC34CC5CC(CC(C5)C3)C4)CC2)cc1`, the melting point fell in the range of 178 to 179 °C.
For `NS(=O)(=O)c1ccc(-c2cccc(-c3nc(-c4ccc(Cl)s4)cc(C(F)(F)F)n3)c2)s1`, the melting point turned out to be 233 °C.
In turn, `CS(=O)(=O)N1CCCn2c(nc3c(N)nc4cc(-c5cccnc5)ccc4c32)C1` came in with a melting point of 302 °C.
With `C#CCC(CC#C)(C(=O)O)S(=O)(=O)c1ccc(OC)cc1`, the melting point turned out to be 156 °C.
In the case of `O=C(O)c1cc2c3c(c1)CCCC3CCC2`, the melting point lay in the range of 208 to 209 °C.
The molecule `Nc1ccc(N2C(=O)c3ccc(Cl)cc3C2=O)c(Cl)c1` registered a melting point of 198 to 201 °C.
`O=C(O)CC1CCCCCCCCCCC1=O` (centres undefined) returned a melting point of 124 °C.
Consider `COC(=O)Oc1c(OC)c(OC)c(OC(=O)OC)c2ccccc12`, for which the melting point lay within 53 to 54 °C.
For the molecule `NC(=O)NCc1c[nH]c(=S)n1[C@H]1CCc2c(F)cc(F)cc2C1`, the melting point lay within 258 to 260 °C.
In the case of `CCc1ccc2c(c1)C(=O)Nc1cccnc1N2C(=O)NCCN1CCCCC1CN(CC)CC` (centres undefined), the melting point fell in the range of 124 to 126 °C.
In the case of `NC(=O)N(O)Cc1cc(Oc2ccc(Cl)cc2)cs1`, the melting point was in the range of 141 to 142 °C.
In turn, `CCn1c(=O)c2[nH]c(/C=C/c3ccc(OC)c(F)c3)nc2n(CC)c1=O` registered a melting point above 270 °C.
For the molecule `Cc1cc(NC(=O)C(C)(O)COc2cccc(F)c2)ccc1[N+](=O)[O-]` (centres undefined), the melting point was in the range of 83 to 86 °C.
Turning to `CC(C)Nc1ccccc1C(=O)O`, the melting point lay within 109 to 110 °C.
The result for `CC1(C)CCC(C)(C)c2cc(-c3cc(-c4ccc(CN)cc4)on3)ccc21` reads 138 to 143 °C.
Molecule `CCC1c2cccn2-c2ccc(C(F)(F)F)cc2N1S(=O)(=O)c1ccc(O)c(Cl)c1` (centres undefined) registered a melting point of 169 to 171 °C.
As for `Cc1nnc(N2N=C(c3ccc(Cl)cc3)c3cc4c(cc3C[C@H]2C)OCO4)s1`, the melting point lay in the range of 105 to 108 °C.
Molecule `COc1nc2cc(Cl)c(Cl)cc2nc1S(C)(=O)=O` gave a melting point of 216 to 219 °C.
Molecule `CN1C(=O)N(C)C(=O)C(C(N)=O)(c2ccc(Cl)cc2)C1=O` displayed a melting point of 225 to 227 °C.
`N#Cc1ncc(-c2ccc(Br)cc2)cn1` displayed a melting point of 202 to 204 °C.
Consider `Nc1cccc2ccc(C(=O)O)cc12`, for which the melting point was in the range of 221 to 223 °C.
In turn, `CCc1c2c(nn1CC)c(N)nc1ncccc12` yielded a melting point of 286 to 288 °C.
Molecule `Cc1ccc2c(c1C)OCC(NNc1ncnc3c1ncn3C1OC(CO)C(O)C1O)C2` (centres undefined) came in with a melting point of 170 to 172 °C.
In the case of `O=C(O)Cn1c(=O)c(=O)[nH]c2cc([N+](=O)[O-])c(-n3ccc(CN4CCC(c5ccccc5)CC4)c3)cc21`, the melting point is above 210 °C.
`COc1cc2c(cc1OC)[C@@H]1CCCC[C@@H]1N=C2c1ccc(N(S(=O)(=O)c2ccc(C)cc2)S(=O)(=O)c2ccc(C)cc2)cc1` (racemic) registered a melting point of 120 to 130 °C.
With `COC(=O)c1c(-c2cc(OC)c(OC)c(OC)c2)c2cc(OC)c(OCc3cccs3)cc2c(=O)n1-c1ccc(N)cc1` the figure was 205 to 206 °C; with `O=C(O)CCc1cc(C(c2cc(F)ccc2F)S(=O)(=O)c2ccc(Cl)cc2)c(F)cn1` (centres undefined), 89 to 91 °C.
Turning to `CCOC(=O)c1cc(O)n2c(C)nnc2n1`, the melting point is 201 to 203 °C.
`NC(=O)CC[C@@H](CF)NC(=O)OCc1ccccc1` showed a melting point of 154 to 157 °C.
As for `c1cn(-c2ccnc(-n3ccnc3)n2)cn1`, the melting point lay within 131 to 132 °C.
The result for `CC(C)(C)c1cc(N(C(=O)CCC(=O)O)c2ccccc2)cc(C(C)(C)C)c1O` reads 205 to 208 °C.
With `CCCCC(CC)C(=O)NC(=S)Nc1nc(-c2ccc3c(c2)CCCC3)cs1` (centres undefined) the figure was 178 to 179 °C.
`COc1cccc(Cn2c(C(=O)O)c(-c3ccc(OCC4CC4)cc3)c3cc(OCc4ccccc4)ccc32)c1` had a melting point of 185 to 187 °C.
Regarding `Fc1cc(Br)ccc1OCc1ccccc1`, the melting point fell in the range of 64.4 to 66.3 °C.
On to `CN1CC(=O)OC2(CCN(CC=CC(=O)Nc3cc4c(Nc5ccc(F)c(Cl)c5)ncnc4cc3OCC3CC3)CC2)C1`, for which the melting point lay in the range of 125 to 130 °C.
The result for `O=C(O)CCCC1CCCNC1` (centres undefined) reads 208 to 210 °C; that for `CC1CCC2(C)C(=CCC3C2CCC2(C)C3CCC23OCCO3)C1` (centres undefined), 121 to 122 °C; that for `Cc1ccc2c(c1)C=Cc1cc(C)ccc1C2c1cn(-c2cc(NCC(=O)Nc3nc(CC(=O)O)cs3)nc(N(C)C)n2)c(=O)[nH]c1=O`, 220 °C.
With `Nc1ccc([N+](=O)[O-])cc1I` the figure was 90 to 95 °C; with `NC(=O)c1cnc2c(N)cccc2c1`, 164 to 165 °C.
As for `CCOC(=O)c1nc(-c2ccncc2)[nH]c1-c1ccc(C)cc1`, the melting point was in the range of 182 to 185 °C.
The result for `Cc1c(-c2ccccc2)oc2c(S(=O)(=O)Cl)cccc2c1=O` reads 165 to 170 °C; that for `CCn1ncc2c(NCc3ccc(OC)c(OC)c3)c3ccccc3nc21`, 169 to 171 °C; that for `CCOC(=O)C(C)(Cc1ccc(O)c(OC)c1)NN` (centres undefined), 114 to 116 °C.
The result for `COc1ccc2sc(C(N)=O)c(SCC(=O)O)c2c1` reads 126 to 127 °C.
The molecule `COC(=O)c1ccc(CC(C)NCC(O)c2ccccc2)c(OC)c1` (centres undefined) gave a melting point of 102 to 104 °C.
`CC(C)Cn1c(CONS(C)(=O)=O)nc2c(N)nc3ccccc3c21` came in with a melting point of 215 to 216 °C.
With `O=C(O)CP(=O)(O)CCc1ccccc1` the figure was 120 to 121 °C; with `CCCc1cc(C(=O)O)ccc1OCCCCCCc1cccc(OC)c1OC`, 107 to 108 °C; with `CN(Cc1cccc2c1CN(C1CCC(=O)NC1=O)C2=O)C(=O)Nc1ccc(Cl)c(Cl)c1` (centres undefined), 275 to 277 °C.
In the case of `CCC(=O)O[C@@H]1[C@@H](c2ccccc2)Nc2c(ccn3c(C)c(C)nc23)[C@H]1OCCOC`, the melting point was in the range of 106 to 107 °C.
As to `C#CCNC(=O)C(c1ccccc1)c1ccccc1`, the melting point turned out to be 131 °C.
The molecule `COc1cc(COc2nn(-c3ccccc3)cc2C=O)ccc1OCc1nc(-c2cccnc2)oc1C` returned a melting point of 161 to 162 °C.
On to `CCOC(=O)C=Cc1cc(OCc2ccccc2)ccc1-c1ccc(-c2cccc(C)c2)c(C(F)F)c1`, for which the melting point lay in the range of 124 to 126 °C.
`CCCCCCCC(=O)N(C)Cc1cc(-c2ccc(C=CC(=O)O)cc2)cs1`: the melting point came to 175 °C.
`Cc1cnc(-c2ccc(CBr)cc2)nc1`: the melting point was 129 to 131 °C.
Take `CC(=O)Nc1cc(C(F)(F)F)ccc1N1CCc2ccccc21`: the melting point is 153 to 155 °C.
With `CCN1c2ncccc2C(=NOC)Nc2c(C)cc(C)nc21` the figure was 164 to 166 °C; with `COCC(=O)N(c1c(C)cccc1N)C(C)C(=O)OC` (centres undefined), 86 to 88 °C; with `S=C=Nc1ccc2nccnc2c1Br`, 157 to 158 °C.
For `CCOC(=O)C12CCC(=O)N1C(=O)CC2`, the melting point lay in the range of 77 to 82 °C.
The result for `CON=C1CCCc2cc(OCCCOc3c(Cl)cc(OCC=C(Cl)Cl)cc3Cl)ccc21` reads 75 to 77 °C; that for `N#Cc1ccc2c(OCc3ccccc3)cc(C(=O)O)cc2c1`, 235 °C; that for `COc1ccc2cc(-c3cccnc3)cc(C)c2n1`, 117 to 118 °C.
The result for `CCOC(=O)C1=C(c2ccccc2)N(c2ccccc2)C(=O)C1C(=O)c1ccccc1` (centres undefined) reads 137 to 139 °C; that for `COc1ccc(C(=O)Nc2ccc(F)cc2)cc1NC(=S)Nc1cc(Cl)cc(Cl)c1`, 175 to 178 °C.
As for `CC(=O)C1C(=O)N(CC2CC2)C(=O)N(c2ccccc2)C1=O` (centres undefined), the melting point lay within 91 to 95 °C.
The result for `CC(C)CCC(O)C(CC1CCCCC1)NC(=O)C(Cc1c[nH]cn1)N(C)C(=O)C(Cc1ccccc1)OC(=O)N(C)CCC(=O)N1CCOCC1` (centres undefined) reads 80 to 87 °C.
With `Cc1ccc(-c2ccc3c(c2)C=C(C(=O)Nc2ccc(CN(C)C4CCOCC4)cc2)CCC3)cc1` the figure was 161 to 162 °C; with `CCOC(=O)C1=Cc2c(F)cccc2OC1C(F)(F)F` (centres undefined), 45.5 to 47 °C.
In turn, `CCOC(=O)CC(NC(=O)C=CS(=O)c1ccccc1)C(=O)OCC` (centres undefined) showed a melting point of 121 to 123 °C.
With `CC(C)(C)ONC(=O)C(C)(C)CCOc1ccc(C2=NNC(=O)CC2)cc1Cl`, the melting point lay in the range of 133 to 135 °C.
For the molecule `NC(=O)c1c(F)ccc(OCc2nc3cc(Br)ccc3s2)c1F`, the melting point was 244 to 246 °C.
Turning to `COc1cccc(NC(=O)c2ccccc2C(c2ccc(O)cc2)c2ccc(O)cc2)c1`, the melting point fell in the range of 106 to 107 °C.
With `COC(=O)c1cc(CC#N)cc(Cc2nc3c(F)c(F)cc(F)c3s2)c1` the figure was 130 to 132 °C.
For the molecule `Cc1ccc(-c2ccccc2C(=O)Nc2ccc(C(=O)N3C[C@@H]4CCCN4C(=O)c4ccccc43)cc2)cc1`, the melting point fell in the range of 230 to 232 °C.
`CCOC(=O)C(=O)C1Cc2ccc(NS(=O)(=O)c3ccc(C)cc3)cc2C1=O` (centres undefined) displayed a melting point of 202 to 204 °C.
`CCOC(Cc1ccc(OCCN2CCOc3ccccc32)cc1)C(N)=O` (centres undefined): the melting point lay in the range of 107 to 109 °C.
For the molecule `CCCNC(=S)NCCC1Cc2ccc(-c3ccc(=O)[nH]n3)cc2C1` (centres undefined), the melting point lay within 155 to 157 °C.
In turn, `O=C(c1ccccc1)c1ccc(OCc2nnn[nH]2)c(Cl)c1Cl` yielded a melting point of 184 to 186 °C.
With `CSC(Oc1cc(Cl)cc(Cl)c1)C(=O)NC(C)(C)C#CCCCC#N` (centres undefined), the melting point lay in the range of 113 to 114 °C.
On to `COc1cc(F)ccc1-c1c(/C=C/C(O)CC(=O)O)c2ccccc2c(=O)n1C(C)C` (centres undefined), for which the melting point lay in the range of 207 to 209 °C.
With `O=C1Cc2cc(C(=O)CCl)ccc2N1` the figure was 236 to 239 °C; with `N#Cc1cc(N)ccc1N1CCC(CCO)CC1`, 60 to 63 °C; with `COc1ccc(-c2[nH]c3cn[nH]c(=O)c3c2Cl)cc1OC1CC1`, 293 to 294 °C.
In turn, `CN(C)CCN(C(=O)N(C)C)c1ccc(N)cn1` displayed a melting point of 118 to 119 °C.
The result for `O=C(CCCCl)Nc1ccccc1` reads 64 to 66 °C; that for `CC(C)(O)CC(N)C1(c2ccc(Cl)cc2)CCC1` (centres undefined), 60 to 62 °C.
Take `CCOC(=O)c1cn(CC)c2sc(Br)cc2c1=O`: the melting point was 153 to 156 °C.
